Test results from patent publication US7687434B2, “Method of improving yield and vigor of plants” (Monsanto Technology, LLC, priority 2000, dated 2010).
≈ marks a conversion by molar mass, not a printed value.

Experiments:
[1] = system: Septoria nodorum; assay: In vitro inhibition of mycelial growth on silthiopham-amended agar; type: cell-based; settings: Glum blotch; note: key: 0 = no; 1 = weak; 2 = good; 3 = excellent
[2] = system: Fusarium oxysporum var. pisi race1 33-11; assay: as above; type: cell-based; for ACTIVITY RATING (0-3): key: 0 = no; 1 = weak; 2 = good; 3 = excellent
[3] = system: Rhizoctonia solani 15-10; assay: as above; type: cell-based; for ACTIVITY RATING (0-3): key: 0 = no; 1 = weak; 2 = good; 3 = excellent
[4] = system: Fusarium solani, var. pisi 34-1; assay: as above; type: cell-based; for ACTIVITY RATING (0-3): key: 0 = no; 1 = weak; 2 = good; 3 = excellent
[5] = system: Rhizoctonia solani 15-9; assay: as above; type: cell-based; for ACTIVITY RATING (0-3): key: 0 = no; 1 = weak; 2 = good; 3 = excellent
[6] = system: Phytopthera infestans; type: cell-based; settings: Late blight
[7] = system: Fusarium oxysporum var. pisi race1 33-10; assay: In vitro inhibition of mycelial growth on silthiopham-amended agar; type: cell-based; for ACTIVITY RATING (0-3): key: 0 = no; 1 = weak; 2 = good; 3 = excellent
[8] = system: soybean plants (CSR2121 variety); assay: Soybean seed treatment field trial, upper Midwestern United States; type: in vivo
[9] = system: Fusarium solani, var. coeruleum 4-5; assay: In vitro inhibition of mycelial growth on silthiopham-amended agar; type: cell-based; for ACTIVITY RATING (0-3): key: 0 = no; 1 = weak; 2 = good; 3 = excellent
[10] = system: Gaeumannomyces graminis var. tritici; assay: as above; type: cell-based; for ACTIVITY RATING (0-3): key: 0 = no; 1 = weak; 2 = good; 3 = excellent
[11] = system: Fusarium solani, var. coeruleum 4-2; assay: as above; type: cell-based; for ACTIVITY RATING (0-3): key: 0 = no; 1 = weak; 2 = good; 3 = excellent
[12] = system: Fusarium oxysporum var. pisi race1 33-9; assay: as above; type: cell-based; for ACTIVITY RATING (0-3): key: 0 = no; 1 = weak; 2 = good; 3 = excellent
[13] = system: Colletotrichum trifolii; assay: as above; type: cell-based; settings: Root rot in alfalfa; note: key: 0 = no; 1 = weak; 2 = good; 3 = excellent
[14] = system: soybean plants; assay: Soybean seed treatment field trial on five farms in South Africa; type: in vivo
[15] = system: Fusarium solani, var. pisi 34-2; assay: In vitro inhibition of mycelial growth on silthiopham-amended agar; type: cell-based; for ACTIVITY RATING (0-3): key: 0 = no; 1 = weak; 2 = good; 3 = excellent
[16] = system: microorganisms that are known to be soybean pathogens; assay: In vitro inhibition of mycelial growth, summary for soybean pathogens; type: cell-based; settings: summary of Table 6
[17] = Fusarium solani, 96 h, Czapek-Dox agar, 4 days at 18° C., log-log fit
[18] = Fusarium oxysporum, 96 h, Czapek-Dox agar, 4 days at 18° C., log-log fit
[19] = seed treatment prior to planting, at plant maturity

Compound: C=CCNC(=O)c1c([Si](C)(C)C)sc(C)c1C [Silthiopham, 4,5-dimethyl-N-(2-propenyl)-2-(trimethylsilyl)-3-thiophenecarboxamide]
- ACTIVITY RATING (0-3) [1]: 0
- EC50 ([2]; Fusarium oxysporum, 96 h): 36100 µg/mL (≈ 135000 µM)
- ACTIVITY RATING (0-3) ([2]; Root rot): 0
- EC50 ([3]; Rhizoctonia solani, 1510, 96 h, Czapek-Dox agar, 4 days at 18° C., log-log fit): 132 µg/mL (≈ 494 µM)
- ACTIVITY RATING (0-3) ([3]; Sheath blight): 0
- EC50 [4, 17]: 126 µg/mL (≈ 470 µM)
- ACTIVITY RATING (0-3) ([4]; Root rot): 0
- EC50 ([5]; Rhizoctonia solani, 159, 96 h, Czapek-Dox agar, 4 days at 18° C., log-log fit): 162 µg/mL (≈ 607 µM)
- ACTIVITY RATING (0-3) ([5]; Sheath blight): 0
- ACTIVITY RATING (0-3) [6]: 0
- EC50 [7, 18]: 112 µg/mL (≈ 421 µM)
- ACTIVITY RATING (0-3) ([7]; Root rot): 0
- improvement in yield compared with untreated control beans ([8]; FIG. 3, soybean yield): no improvement over the untreated control
- seed weight increase (beans larger) than untreated control beans ([8]; FIG. 4): performed comparably with untreated beans
- plant height increase (plants taller) than untreated control beans ([8]; FIG. 5): performed comparably with untreated beans
- Canopy (% coverage) ([8]; percent of canopy closure, 100% is total coverage): 78%
- Plant Height [8, 19]: 22.8 inches
- Seed Weight [8, 19]: 11.0 gm/100 seeds
- Grain Yield ([8]; seed treatment prior to planting, determined at plant maturity, adjusted to 13% moisture): 36.4 bu/ac
- Vigor (1 worst-9 best) ([8]; standard 1-9 scale, 1 worst, 9 best and most vigorous): 6
- EC50 [9, 17]: 127 µg/mL (≈ 476 µM)
- ACTIVITY RATING (0-3) ([9]; Root rot): 0
- EC50 ([10]; Gaeumannomyces graminis, 96 h, Czapek-Dox agar, 4 days at 18° C., log-log fit): 0.001 µg/mL (≈ 0.00374 µM)
- ACTIVITY RATING (0-3) ([10]; Take-all disease in cereals): 3
- activity against Gaerumannomyces graminis var. tritici (in words) ([10]; summary of Table 6): excellent activity
- EC50 [11, 17]: 113 µg/mL (≈ 423 µM)
- ACTIVITY RATING (0-3) ([11]; Root rot): 0
- EC50 [12, 18]: 109 µg/mL (≈ 407 µM)
- ACTIVITY RATING (0-3) ([12]; Root rot): 0
- ACTIVITY RATING (0-3) [13]: 0
- SOYBEAN YIELD ([14]; Avg. of farms 3-5 (dryland)): 1949 kg/ha
- SOYBEAN YIELD ([14]; Farm 4, dryland, cultivar SNK444, sand clay 12%): 1844 kg/ha
- SOYBEAN YIELD ([14]; Farm 5, dryland, cultivar SNK400, clay 40%): 2054 kg/ha
- grain yield, statistical comparison ([14]; combination vs standard Mollyflo+Bradyrhizobium, silthiopham alone vs non-treated control): did not significantly differ from the non-treated control
- visual appearance of vegetative growth ([14]; compared to the standard Mollyflo+inoculant treatment): appeared visually greener and more vigorous
- number of nodules on plant roots ([14]; farms 4 and 5, FIGS. 6 and 7, plants in 400-mm rows): did not substantially affect the number of nodules
- plant weight ([14]; farms 4 and 5, FIGS. 8 and 9, 2 meters per plot): no effect on plant weight
- visual appearance of nodules ([14]; where silthiopham was included in the treatment): Nodules visually appeared healthier
- EC50 [15, 17]: 106 µg/mL (≈ 398 µM)
- ACTIVITY RATING (0-3) ([15]; Root rot): 0
- activity against soybean pathogens (in words) [16]: little or no activity
